One may read the melting point as the temperature of the solid-liquid transition. For orientation: mortality means the share of the test organisms that died.

Structures can show the parent of a compound that is named as a salt. Where two headings read alike, the source gives them in different places.

In patent US20220267272A1, “PYRIDINIUM SALT AND PEST CONTROL AGENT” (Nippon Soda Co., Ltd., priority 2019, published 2022) one finds melting point and mortality data, which are given here for 23 compounds.

The test system of one series is Spodoptera litura. The series can be described thus: Efficacy test against Spodoptera litura (cabbage leaf disc). The settings on record: foliar, 144 h. The class given is in vivo. As for the experimental part: (§1) 5 parts by mass of a compound according to the present invention, 93.6 parts of dimethylformamide, and 1.4 parts of polyoxyethylene alkyl aryl ether were mixed and dissolved to obtain an emulsion (1) containing 5% by mass of the active ingredient.
The emulsion (1) was diluted with water such that the amount of the compound according to the present invention became 125 ppm by mass. A cabbage leaf disc was immersed in the diluted solution for 30 seconds. The cabbage leaf disc was air-dried and then put in a petri dish, followed by leaving five second-instar larvae of Spodoptera litura therein. The petri dish was placed in a thermostatic chamber at a temperature of 25° C. and a humidity of 60%. After six days had passed from leaving the larvae, life or death was assessed and the mortality was calculated. The test was repeated twice.

For a further series, the system named is Helicoverpa armigera. The series can be described thus: Efficacy test against Helicoverpa armigera (cabbage leaf disc). The class given is in vivo. The settings on record: foliar, 144 h.
A further series has as its system Mythimna separata. In words: Efficacy test (2) against Mythimna separata (corn leaf disc). The settings on record: foliar, 144 h, 125 ppm by mass, corn leaf disc immersed 30 seconds, second-instar larvae, 25° C., humidity 60%, after six days. The class given is in vivo. As to the method: as §1
The emulsion (1) was diluted with water such that the amount of the compound according to the present invention became 125 ppm by mass. A corn leaf disc was immersed in the diluted solution for 30 seconds. The corn leaf disc was put in a petri dish, and five second-instar larvae of Mythimna separata were left therein. The petri dish was placed in a thermostatic chamber at a temperature of 25° C. and a humidity of 60%. After six days had passed from leaving the larvae, life or death was assessed and the mortality was calculated. The test was repeated twice.

For a further series, the system named is Plutella xylostella. The series can be described thus: Efficacy test against Plutella xylostella (cabbage leaf disc). The settings on record: foliar, 72 h, 125 ppm by mass, cabbage leaf disc immersed 30 seconds, second-instar larvae, 25° C., humidity 60%, after three days. It counts as in vivo.
The mark [1] stands for this setting: 125 ppm by mass, cabbage leaf disc immersed 30 seconds, second-instar larvae, 25° C., humidity 60%, after six days, read-out: mortality.

The compound `O=C([N-][n+]1ccccc1)c1ccc(NS(=O)(=O)c2ccc(C(F)(F)F)cc2)cc1` showed a melting point of 199 to 203 °C.
As for `O=C([N-][n+]1ccccc1)c1ccc(NC(=O)c2ccc(C(F)(F)F)cc2)cc1`, the melting point fell in the range of 287 to 289 °C.
The same measure, in the same setting: to `Cl.O=C(N[n+]1ccccc1)c1ccc(NCc2ccc(OC(F)(F)F)cc2)cc1.[Cl-]` belongs 204 to 206 °C; to `O=C([N-][n+]1ccccc1)c1ccc(SCC(F)(F)C(F)(F)C(F)(F)C(F)(F)C(F)(F)F)cc1` (as salt: salt) [Compound C1-18, 1-(4-((2,2,3,3,4,4,5,5,6,6,6-undecafluorohexyl)thio)benzamide) pyridinium intramolecular salt], 132 to 134 °C.
The same measure, in the same setting: to `O=C([N-][n+]1ccccc1)c1ccc(C(=O)Nc2ccc(OC(F)(F)F)cc2)cc1` [Compound C1-1, pyridin-1-ium-1-yl(4-((4-(trifluoromethoxy)phenyl)carbamoyl)benzoyl)amide] belongs 281 to 283 °C.
`O=C([N-][n+]1ccccc1)c1ccc(/C=N/OCC(F)(F)F)cc1` [Compound C1-5, (E)-pyridin-1-ium-1-yl(4-(((2,2,2-trifluoroethoxy)imino)methyl)benzoyl)amide] gave a melting point of 142 to 143 °C.
In turn, `O=C([N-][n+]1ccccc1)c1ccc(Cc2ccc(C(F)(F)F)cc2)cc1` [Compound C1-7, pyridin-1-ium-1-yl(4-(4-(trifluoromethyl)benzyl)benzoyl)amide] gave a melting point of 180 to 183 °C.
Still for that read-out and setting: then `O=C([N-][n+]1ccccc1)c1ccc(Oc2ccc(OC(F)(F)F)cc2)cc1` [Compound C1-8, pyridin-1-ium-1-yl(4-(4-(trifluoromethoxy)phenoxy)benzoyl)amide], with 111 to 113 °C.
Consider `O=C([N-][n+]1ccccc1)c1ccc(OC(F)(F)C(F)OC(F)(F)C(F)(F)C(F)(F)F)cc1` (stereo not shown) [Compound C1-11, 1-(4-(1,1,2-trifluoro-2-(perfluoropropoxy)ethoxy)benzamide) pyridinium intramolecular salt], for which the mortality at 125 ppm in the series with Spodoptera litura and in the series on Helicoverpa armigera was ≥ 80% throughout.
Turning to `O=C([N-][n+]1ccccc1)c1ccc(OCC(F)(F)C(F)(F)C(F)(F)C(F)(F)F)cc1` [Compound C1-19, 1-(4-(2,2,3,3,4,4,5,5,5-nonafluoropentoxy)benzamide)pyridinium intramolecular salt], in the series with Spodoptera litura, the mortality at 125 ppm is ≥ 80%.
In the case of `O=C([N-][n+]1ccccc1)c1ccc(/C=C/C(F)(F)F)cc1` [Compound C1-25, 1-(4-((1E)-3,3,3-trifluoro-1-propen-1-yl)benzamide)pyridinium intramolecular salt], the mortality at 125 ppm in the series on Spodoptera litura (setting [1]) is ≥ 80%.
For `O=C([N-][n+]1ccccc1)c1ccc(C#Cc2ccc(C(F)(F)F)cc2)cc1` [Compound C1-29, pyridin-1-ium-1-yl(4-((4-(trifluoromethyl)phenyl)ethynyl)benzoyl) amide], the mortality at 125 ppm in the series with Mythimna separata, with Spodoptera litura (setting [1]) and in the series on Plutella xylostella was ≥ 80% each time.
With `O=C([N-][n+]1ccccc1)c1ccc(C(=O)c2ccc(OC(F)(F)F)cc2)cc1` [Compound C1-30, 1-(4-(4-(trifluoromethoxy)benzoyl)benzamide)pyridinium intramolecular salt], in the series with Plutella xylostella, the mortality at 125 ppm was ≥ 80%.
Take `O=C([N-][n+]1ccccc1)c1ccc(/C=C/c2ccc(C(F)(F)F)cc2)cc1` [Compound C1-31, (E)-Pyridin-1-ium-1-yl(4-(4-(trifluoromethyl)styryl)benzoyl)amide]: the mortality at 125 ppm in the series on Mythimna separata, in the series on Spodoptera litura (setting [1]) and in the series on Plutella xylostella was ≥ 80% throughout.
Compound `CC(C)(C)OC(=O)Nc1ccc(C(=O)[N-][n+]2ccccc2)cc1` [Compound C1-57, (4-((tert-butoxycarbonyl)amino)benzoyl)(pyridin-1-ium-1-yl)amide] gave a melting point of 251 to 253 °C.
For `O=C([N-][n+]1ccccc1)c1ccc(C2CC2c2ccc(OC(F)(F)F)cc2)cc1` (stereo not shown) [Compound C2-1], the mortality at 125 ppm with Spodoptera litura (setting [1]) and in the series on Helicoverpa armigera (setting [1]) was ≥ 80% each time.
Consider `O=C([N-][n+]1ccccc1)c1ccc(C2CC2c2ccc(C(F)(F)F)cc2)cc1` (stereo not shown) [Compound C2-2], for which the mortality at 125 ppm in the series on Spodoptera litura (setting [1]) and with Helicoverpa armigera (setting [1]) was ≥ 80% throughout.
The compound `Cc1cccc[n+]1[N-]C(=O)c1ccc(C2CC2c2ccc(Cl)cc2)cc1` (stereo not shown) [Compound C2-3] gave a melting point of 140 to 144 °C.
Take `O=C([N-][n+]1ccccc1)c1ccc(C2CC2c2ccc(Cl)cc2)cc1` (stereo not shown) [Compound C2-4]: the mortality at 125 ppm in the series with Mythimna separata was ≥ 80%.
For the compound `O=C([N-][n+]1ccccc1)c1ccc(/C=C/c2ccc(OC(F)(F)F)cc2)cc1` [Compound C2-5], the mortality at 125 ppm in the series with Spodoptera litura (setting [1]) and in the series with Plutella xylostella was ≥ 80% each time.
In turn, `O=C([N-][n+]1ccccc1)c1ccc(OC/C=C\Cl)cc1` [Compound C2-7] had a melting point of 101 to 104 °C.
Still for that read-out and setting: to `O=C([N-][n+]1ccccc1)c1ccc(OC/C=C/Cl)cc1` [Compound C2-8] belongs 161 to 162 °C.
On the same count and under the same terms, to `CC(C)(C)OC(=O)N(Cc1ccc(OC(F)(F)F)cc1)c1ccc(C(=O)[N-][n+]2ccccc2)cc1` [Compound C2-9] belongs 183 to 184 °C.
